The record followed here is patent US20230257468A1, “CIS-Binding Siglec Agonists and Related Compositions And Methods” (The Board of Trustees of the Leland Stanford Junior …, priority 2020, published 2023).

Assay type in all cases: cell-based, human
One assay has as its system primary neutrophils. The experiment in a line: Live-cell imaging NETosis assay, primary neutrophils. Conditions: healthy neutrophils in vitro. How it is done: (a-c) Primary neutrophils were cotreated with R848 (10 μM) and glycopolypeptide (500 nM) in IMDM supplemented 0.5% hiFBS containing the membrane impermeable DNA intercalators Cytotox Green or Red (250 nM). Images were acquired by fluorescence microscopy every 15 min for 12 h. The area of all green fluorescent objects >300 μm^2 was quantified and the total area was averaged across three images per well. Relative NETosis was determined by normalizing to the maximal NET area from R848 treatment alone (t=8 h). (a) Representative phase contrast and fluorescence images from t=8 h. Scale bars indicate 40 μm. (b) Quantitation of NETosis over time as area under the curve in (c). Error bars represent SD. (c) NET formation and degradation as a function of time. Error bands represent SEM. (d) Treatment of R848-stimulated neutrophils with various glycopolypeptides. Error bars represent SD. […] Statistics were determined by two-way ANOVA (b) or one-way ANOVA (c,d,f). * p<0.05; ** p<0.01; *** p<0.001; **** p<0.0001.
TLR agonists were assayed using the live-cell imaging techniques in which freshly isolated neutrophils are cultured in low-serum media in the presence of a fluorogenic and membrane impermeable DNA-intercalating dye (Cytotox Green). Upon genomic DNA-externalization by NETosis, dye intercalates and fluorescence increases. […]

For a further assay, the system named is dHL-60 cells. The experiment in a line: NETosis in neutrophil-like dHL-60 cells. On the procedure: (a-c) Primary neutrophils were cotreated with R848 (10 μM) and glycopolypeptide (500 nM) in IMDM supplemented 0.5% hiFBS containing the membrane impermeable DNA intercalators Cytotox Green or Red (250 nM). Images were acquired by fluorescence microscopy every 15 min for 12 h. The area of all green fluorescent objects >300 μm^2 was quantified and the total area was averaged across three images per well. Relative NETosis was determined by normalizing to the maximal NET area from R848 treatment alone (t=8 h). (a) Representative phase contrast and fluorescence images from t=8 h. Scale bars indicate 40 μm. (b) Quantitation of NETosis over time as area under the curve in (c). Error bars represent SD. (c) NET formation and degradation as a function of time. Error bands represent SEM. (d) Treatment of R848-stimulated neutrophils with various glycopolypeptides. Error bars represent SD. (e) pS9L is a mucin-like glycopolypeptide that bears high affinity and specific ligands for Siglec-9 and is functionalized with a membrane-tethering lipid tail. (f) HL-60 cells were transfected with siRNAs against SIGLEC9 (encoding Siglec-9), PTPN6 (encoding SHP-1), or a scrambled control and then grown for two days. Cells were then cotreated with R848 (10 μM) and vehicle or pS9L (500 nM). […] Statistics were determined by two-way ANOVA (b) or one-way ANOVA (c,d,f). * p<0.05; ** p<0.01; *** p<0.001; **** p<0.0001. […]

The next assay concerns PADI4 substrate H3. The experiment in a line: Western blot of H3 citrullination in neutrophils.
A further assay has as its system neutrophils. Put plainly: Oxidative burst (ROS) in neutrophils.

Take `CCOCc1nc2c(N)nc3ccccc3c2n1CC(C)(C)O` [R848]: the “induction of NETosis” value with primary neutrophils is reported as “sufficient to induce NETosis”; in the assay on dHL-60 cells it was “induced NETosis”. For the same compound, the “citrullination of H3” value in the assay on PADI4 substrate H3 was “rapidly induced citrullination at R2, R8, and R17”.
Consider `O=S(=O)(O)c1ccc2cc(N=Nc3cc(S(=O)(=O)O)c4cccnc4c3O)ccc2c1` [NSC-87877], for which, in the assay with neutrophils, the “inhibition of pS9L-induced oxidative burst” value is listed as “the oxidative burst was inhibited”.
As to `CCCCCCCCCCCCCC(=O)O[C@@H]1[C@@H](C)[C@@]2(O)[C@@H](C=C(CO)C[C@]3(O)C(=O)C(C)=C[C@@H]23)[C@@H]2C(C)(C)[C@]12OC(C)=O` [PMA, phorbol-12-myristate-13-acetate], in the assay with PADI4 substrate H3, the “citrullination of H3” value is given as “only yields moderate citrullination”.
